Measurements reported in the supplement of paper PMC8612539.
≈ marks a conversion by molar mass, not a printed value.

System: Escherichia coli
Assay: minimum inhibitory concentration (MIC)
Method: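 Broth microdilution MIC (Sensititre BOPO7F bovine plate, CLSI methods) of 19 antimicrobials against field isolates of P. multocida, M. haemolytica, H. somni (deep nasopharyngeal swabs) and E. coli, Enterococcus spp. (rectal swabs) from weaned dairy heifers. Incubation 16-24 h at 35 C. MIC is the lowest concentration preventing visible growth. Values with <= or > lie at the tested range limits. Trimethoprim-sulfamethoxazole is given as the trimethoprim component of a 1:19 mixture.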

CNC(C)C1CCC(N)C(OC2C(N)CC(N)C(OC3OCC(C)(O)C(NC)C3O)C2O)O1 (stereo not given) [Gentamicin]
Settings | minimum inhibitory concentration [mg/L]
isolate (source animal id): 8 | ≤ 1
isolate (source animal id): 9 | ≤ 1
isolate (source animal id): 10 | ≤ 1
isolate (source animal id): 11 | ≤ 1
isolate (source animal id): 12 | ≤ 1
isolate (source animal id): 13 | ≤ 1
isolate (source animal id): 14 | ≤ 1
isolate (source animal id): 15 | ≤ 1
isolate (source animal id): 16 | ≤ 1
isolate (source animal id): 98 | ≤ 1
isolate (source animal id): 99 | ≤ 1
isolate (source animal id): 100 | ≤ 1
isolate (source animal id): 101 | ≤ 1
isolate (source animal id): 102 | ≤ 1
isolate (source animal id): 103 | ≤ 1
isolate (source animal id): 104 | ≤ 1
isolate (source animal id): 105 | ≤ 1
isolate (source animal id): 106 | ≤ 1
isolate (source animal id): 107 | ≤ 1
isolate (source animal id): 108 | ≤ 1
isolate (source animal id): 109 | ≤ 1
isolate (source animal id): 110 | ≤ 1
isolate (source animal id): 111 | ≤ 1
isolate (source animal id): 112 | ≤ 1
isolate (source animal id): 113 | ≤ 1
isolate (source animal id): 114 | ≤ 1
isolate (source animal id): 115 | ≤ 1
isolate (source animal id): 116 | ≤ 1
isolate (source animal id): 117 | ≤ 1
isolate (source animal id): 118 | ≤ 1
isolate (source animal id): 119 | ≤ 1
isolate (source animal id): 120 | ≤ 1
isolate (source animal id): 121 | ≤ 1
isolate (source animal id): 122 | 8 (≈ 16.8 µM)
isolate (source animal id): 123 | ≤ 1
isolate (source animal id): 124 | 2 (≈ 4.19 µM)
isolate (source animal id): 125 | ≤ 1
isolate (source animal id): 126 | ≤ 1
isolate (source animal id): 127 | ≤ 1
isolate (source animal id): 128 | ≤ 1
isolate (source animal id): 129 | ≤ 1
isolate (source animal id): 130 | ≤ 1
isolate (source animal id): 131 | ≤ 1
isolate (source animal id): 132 | ≤ 1
isolate (source animal id): 133 | ≤ 1
isolate (source animal id): 134 | ≤ 1
isolate (source animal id): 135 | ≤ 1
isolate (source animal id): 136 | ≤ 1
isolate (source animal id): 137 | ≤ 1
isolate (source animal id): 138 | ≤ 1
isolate (source animal id): 139 | ≤ 1
isolate (source animal id): 140 | ≤ 1
isolate (source animal id): 141 | ≤ 1
isolate (source animal id): 142 | ≤ 1
isolate (source animal id): 143 | ≤ 1
isolate (source animal id): 144 | ≤ 1
isolate (source animal id): 145 | ≤ 1
isolate (source animal id): 146 | ≤ 1
isolate (source animal id): 147 | ≤ 1
isolate (source animal id): 148 | ≤ 1
isolate (source animal id): 149 | ≤ 1
isolate (source animal id): 150 | ≤ 1
isolate (source animal id): 151 | ≤ 1
isolate (source animal id): 152 | ≤ 1
isolate (source animal id): 153 | ≤ 1
isolate (source animal id): 154 | ≤ 1
isolate (source animal id): 155 | ≤ 1
isolate (source animal id): 156 | ≤ 1
isolate (source animal id): 157 | ≤ 1
isolate (source animal id): 158 | ≤ 1
isolate (source animal id): 159 | ≤ 1
isolate (source animal id): 160 | ≤ 1
isolate (source animal id): 161 | ≤ 1
isolate (source animal id): 162 | ≤ 1
isolate (source animal id): 163 | ≤ 1
isolate (source animal id): 164 | ≤ 1
isolate (source animal id): 165 | ≤ 1
isolate (source animal id): 166 | ≤ 1
isolate (source animal id): 167 | ≤ 1
isolate (source animal id): 168 | ≤ 1
isolate (source animal id): 169 | ≤ 1
isolate (source animal id): 170 | ≤ 1
isolate (source animal id): 171 | ≤ 1
isolate (source animal id): 172 | ≤ 1
isolate (source animal id): 173 | ≤ 1
isolate (source animal id): 174 | ≤ 1
isolate (source animal id): 175 | ≤ 1
isolate (source animal id): 176 | ≤ 1
isolate (source animal id): 177 | ≤ 1
isolate (source animal id): 178 | ≤ 1
isolate (source animal id): 179 | ≤ 1
isolate (source animal id): 180 | 4 (≈ 8.38 µM)
isolate (source animal id): 181 | ≤ 1
isolate (source animal id): 182 | ≤ 1
isolate (source animal id): 183 | ≤ 1
isolate (source animal id): 184 | ≤ 1
isolate (source animal id): 185 | ≤ 1
isolate (source animal id): 186 | ≤ 1
isolate (source animal id): 187 | 8 (≈ 16.8 µM)
isolate (source animal id): 188 | ≤ 1

NC[C@@H]1O[C@H](O[C@H]2[C@@H](O)[C@H](O[C@@H]3[C@@H](O)[C@H](N)C[C@H](N)[C@H]3O[C@H]3O[C@H](CN)[C@@H](O)[C@H](O)[C@H]3N)O[C@@H]2CO)[C@H](N)[C@@H](O)[C@@H]1O [Neomycin]
Settings | minimum inhibitory concentration [mg/L]
isolate (source animal id): 8 | 32 (≈ 52.1 µM)
isolate (source animal id): 9 | ≤ 4
isolate (source animal id): 10 | > 32
isolate (source animal id): 11 | ≤ 4
isolate (source animal id): 12 | ≤ 4
isolate (source animal id): 13 | ≤ 4
isolate (source animal id): 14 | 32 (≈ 52.1 µM)
isolate (source animal id): 15 | ≤ 4
isolate (source animal id): 16 | ≤ 4
isolate (source animal id): 98 | ≤ 4
isolate (source animal id): 99 | ≤ 4
isolate (source animal id): 100 | ≤ 4
isolate (source animal id): 101 | ≤ 4
isolate (source animal id): 102 | ≤ 4
isolate (source animal id): 103 | ≤ 4
isolate (source animal id): 104 | ≤ 4
isolate (source animal id): 105 | ≤ 4
isolate (source animal id): 106 | > 32
isolate (source animal id): 107 | ≤ 4
isolate (source animal id): 108 | ≤ 4
isolate (source animal id): 109 | ≤ 4
isolate (source animal id): 110 | ≤ 4
isolate (source animal id): 111 | > 32
isolate (source animal id): 112 | > 32
isolate (source animal id): 113 | ≤ 4
isolate (source animal id): 114 | ≤ 4
isolate (source animal id): 115 | > 32
isolate (source animal id): 116 | ≤ 4
isolate (source animal id): 117 | > 32
isolate (source animal id): 118 | ≤ 4
isolate (source animal id): 119 | ≤ 4
isolate (source animal id): 120 | > 32
isolate (source animal id): 121 | ≤ 4
isolate (source animal id): 122 | > 32
isolate (source animal id): 123 | ≤ 4
isolate (source animal id): 124 | ≤ 4
isolate (source animal id): 125 | ≤ 4
isolate (source animal id): 126 | ≤ 4
isolate (source animal id): 127 | ≤ 4
isolate (source animal id): 128 | ≤ 4
isolate (source animal id): 129 | ≤ 4
isolate (source animal id): 130 | ≤ 4
isolate (source animal id): 131 | ≤ 4
isolate (source animal id): 132 | > 32
isolate (source animal id): 133 | ≤ 4
isolate (source animal id): 134 | ≤ 4
isolate (source animal id): 135 | ≤ 4
isolate (source animal id): 136 | ≤ 4
isolate (source animal id): 137 | > 32
isolate (source animal id): 138 | ≤ 4
isolate (source animal id): 139 | ≤ 4
isolate (source animal id): 140 | ≤ 4
isolate (source animal id): 141 | > 32
isolate (source animal id): 142 | ≤ 4
isolate (source animal id): 143 | > 32
isolate (source animal id): 144 | ≤ 4
isolate (source animal id): 145 | > 32
isolate (source animal id): 146 | ≤ 4
isolate (source animal id): 147 | > 32
isolate (source animal id): 148 | ≤ 4
isolate (source animal id): 149 | ≤ 4
isolate (source animal id): 150 | > 32
isolate (source animal id): 151 | ≤ 4
isolate (source animal id): 152 | ≤ 4
isolate (source animal id): 153 | ≤ 4
isolate (source animal id): 154 | ≤ 4
isolate (source animal id): 155 | 32 (≈ 52.1 µM)
isolate (source animal id): 156 | > 32
isolate (source animal id): 157 | ≤ 4
isolate (source animal id): 158 | > 32
isolate (source animal id): 159 | ≤ 4
isolate (source animal id): 160 | > 32
isolate (source animal id): 161 | > 32
isolate (source animal id): 162 | ≤ 4
isolate (source animal id): 163 | ≤ 4
isolate (source animal id): 164 | ≤ 4
isolate (source animal id): 165 | 32 (≈ 52.1 µM)
isolate (source animal id): 166 | ≤ 4
isolate (source animal id): 167 | ≤ 4
isolate (source animal id): 168 | ≤ 4
isolate (source animal id): 169 | ≤ 4
isolate (source animal id): 170 | ≤ 4
isolate (source animal id): 171 | ≤ 4
isolate (source animal id): 172 | ≤ 4
isolate (source animal id): 173 | ≤ 4
isolate (source animal id): 174 | ≤ 4
isolate (source animal id): 175 | ≤ 4
isolate (source animal id): 176 | ≤ 4
isolate (source animal id): 177 | ≤ 4
isolate (source animal id): 178 | ≤ 4
isolate (source animal id): 179 | ≤ 4
isolate (source animal id): 180 | ≤ 4
isolate (source animal id): 181 | 32 (≈ 52.1 µM)
isolate (source animal id): 182 | ≤ 4
isolate (source animal id): 183 | ≤ 4
isolate (source animal id): 184 | ≤ 4
isolate (source animal id): 185 | ≤ 4
isolate (source animal id): 186 | ≤ 4
isolate (source animal id): 187 | 32 (≈ 52.1 µM)
isolate (source animal id): 188 | ≤ 4
